biological target: T1, catalytic domain of human JAK2 (Homo sapiens, UniProt O60674); assay: Inhibition of JAK2 activity (Z'-Lyte Kinase Assay kit-Tyr 6 Peptide); assay type: biochemical
T1 construct: the catalytic domain of human JAK2
Procedure: The inhibition of JAK2 kinase activity was determined in 384-well assay microplates using the Z′-Lyte® Kinase Assay kit-Tyr 6 Peptide kit, supplied by Invitrogen (Ref: PV4122), following the manufacturer's instructions.
In a final volume of 10 μL per well, 2.5 μL of the product to be tested dissolved in 4% DMSO (final concentration of the product to be tested, 0.1-10000 nM) was incubated with 0.5 μg/well of the catalytic domain of human JAK2, 2 μM of the substrate peptide Z′-Lyte® Tyr 6 and 16 μM of ATP; all components were dissolved in 50 mM pH 7.5 Hepes buffer, 10 mM Magnesium chloride (II), 1 mM EGTA and 0.01% Brij® 35. The reaction was started by the addition of said 16 μM ATP; after incubation for 1 hour at 25° C., 5 μL of A Z′-Lyte® Tyr 6 development reagent was added and the mixture was incubated for 1 hour at 25° C. Phosphorylation was then quantified in each well using a Safire2® fluorescence microplate reader from Tecan.

T1 sequence (O60674 849-1124 limits assumed): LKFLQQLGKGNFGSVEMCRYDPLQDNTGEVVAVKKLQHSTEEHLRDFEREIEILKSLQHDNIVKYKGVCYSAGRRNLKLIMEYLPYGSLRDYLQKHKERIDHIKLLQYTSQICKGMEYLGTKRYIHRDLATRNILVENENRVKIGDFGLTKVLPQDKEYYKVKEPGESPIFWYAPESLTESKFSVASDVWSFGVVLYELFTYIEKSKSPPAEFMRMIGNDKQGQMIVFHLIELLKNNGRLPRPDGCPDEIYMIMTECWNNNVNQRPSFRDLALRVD

Inhibition at 1 µM, > 50%:
O=c1[nH]c2cnc(-c3cnn4ccccc34)nc2n1C1CCOCC1 [Example 3, 2-(Pyrazolo[1,5-a]pyridin-3-yl)-9-(tetrahydro-2H-pyran-4-yl)-7H-purin-8(9H)-one]
CC(C)(C)OC(=O)N1CCC[C@H](n2c(=O)[nH]c3cnc(-c4cnn5ccccc45)nc32)C1 [Example 3b, (S)-tert-butyl 3-(8-oxo-2-(pyrazolo[1,5-a]pyridin3-yl)-7H-purin-9(8H)-yl)piperidine-1-carboxylate]
O=c1[nH]c2cnc(-c3cnn4ccccc34)nc2n1C1CCOc2c(F)cccc21 (stereo not shown) [Example 3d, 9-(8-fluorochroman-4-yl)-2-(pyrazolo[1,5-a]pyridin-3-yl)-7H-purin-8(9H)-one]
COC(=O)[C@H](C)n1c(=O)[nH]c2cnc(-c3cnn4ccccc34)nc21 [Example 3e, methyl (2S)-2-(8-oxo-2-(pyrazolo[1,5-a]pyridin-3-yl)-7,8-dihydro-9H-purin-9-yl)propanoate]
Cn1c(=O)n(C2CCOc3c(F)cccc32)c2nc(-c3cnn4ccccc34)ncc21 (stereo not shown) [Example 4c, 9-(8-fluorochroman-4-yl)-7-methyl-2-(pyrazolo[1,5-a]pyridin-3-yl)-7H-purin-8(9H)-one]
Cn1c(=O)n([C@H]2CCCN(C(=O)OC(C)(C)C)C2)c2nc(-c3cnn4ccccc34)ncc21 [Example 5, (S)-tert-Butyl 3-(7-methyl-8-oxo-2-(pyrazolo[1,5-a]pyridine-3-yl)-7H-purin-9(8H)-yl)piperidine-1-carboxylate]
Cn1c(=O)n(C2CCOCC2)c2nc(-c3cnn4ccccc34)ncc21 [Example 5a, 7-methyl-2-(pyrazolo[1,5-a]pyridin-3-yl)-9-(tetrahydro-2H-pyran-4-yl)-7H-purin-8(9H)-one]
Cn1c(=O)n(C2CCOCC2)c2nc(-c3cnn4ccc(C#N)cc34)ccc21 [Example 5b, 3-(1-methyl-2-oxo-3-(tetrahydro-2H-pyran-4-yl)-2,3-dihydro-1H-imidazo[4,5-b]pyridin-5-yl)pyrazolo[1,5-a]pyridine-5-carbonitrile]
Cn1c(=O)n(C2CCC(F)(F)CC2)c2nc(-c3cnn4ccc(C#N)cc34)ncc21 [Example 5e, 3-(9-(4,4-difluorocyclohexyl)-7-methyl-8-oxo-8,9-dihydro-7H-purin-2-yl)pyrazolo[1,5-a]pyridine-5-carbonitrile]
Cn1c(=O)n(C2CCS(=O)(=O)C2)c2nc(-c3cnn4ccc(C#N)cc34)ncc21 (stereo not shown) [Example 5f, 3-(9-(1,1-dioxotetrahydrothien-3-yl)-8,9-dihydro-7-methyl-8-oxopurin-2-yl)pyrazolo[1,5-a]pyridine-5-carbonitrile]
Cn1c(=O)n(Cc2ccccc2F)c2nc(-c3cnn4ccc(C#N)cc34)ncc21 [Example 5h, 3-(9-(2-fluorobenzyl)-7-methyl-8-oxo-8,9-dihydro-7H-purin-2-yl)pyrazolo[1,5-a]pyridine-5-carbonitrile]
CC(=O)N1CCC(n2c(=O)n(C)c3cnc(-c4cnn5ccc(C(F)(F)F)cc45)nc32)CC1 [Example 5i, 9-(1-acetylpiperidin-4-yl)-7-methyl-2-(5-(trifluoromethyl)pyrazolo[1,5-a]pyridin-3-yl)-7H-purin-8(9H)-one]
N#CCC(=O)N1CCC[C@H](n2c(=O)[nH]c3ccc(-c4cnn5ccccc45)nc32)C1 [Example 7p, (S)-3-oxo-3-(3-(2-oxo-5-(pyrazolo[1,5-a]pyridin-3-yl)-1H-imidazo[4,5-b]pyridin-3(2H)-yl)piperidin-1-yl)propanenitrile]
CC(C)C(=O)N1CCC[C@H](n2c(=O)[nH]c3ccc(-c4cnn5ccccc45)nc32)C1 [Example 8d, (S)-3-(1-isobutyrylpiperidin-3-yl)-5-(pyrazolo[1,5-a]pyridin-3-yl)-1H-imidazo[4,5-b]pyridin-2(3H)-one]
CS(=O)(=O)N1CCC[C@H](n2c(=O)[nH]c3cnc(-c4cnn5ccccc45)nc32)C1 [Example 9a, (S)-9-(1-(methylsulfonyl)piperidin-3-yl)-2-(pyrazolo[1,5-a]pyridin-3-yl)-7H-purin-8(9H)-one]
CCCS(=O)(=O)N1CCC[C@H](n2c(=O)[nH]c3cnc(-c4cnn5ccc(C#N)cc45)nc32)C1 [Example 9b, (S)-3-(8-oxo-9-(1-(propylsulfonyl)piperidin-3-yl)-8,9-dihydro-7H-purin-2-yl)pyrazolo[1,5-a]pyridine-5-carbonitrile]
N#Cc1ccn2ncc(-c3ncc4[nH]c(=O)n([C@H]5CCCN(S(=O)(=O)CC(F)(F)F)C5)c4n3)c2c1 [Example 9c, (S)-3-(8-oxo-9-(1-(2,2,2-trifluoroethylsulfonyl)piperidin-3-yl)-8,9-dihydro-7H-purin-2-yl)pyrazolo[1,5-a]pyridine-5-carbonitrile]
Cn1c(=O)n([C@H]2CCCN(S(C)(=O)=O)C2)c2nc(-c3cnn4ccccc34)ccc21 [Example 9f, (S)-1-methyl-3-(1-(methylsulfonyl)piperidin-3-yl)-5-(pyrazolo[1,5-a]pyridin-3-yl)-1H-imidazo[4,5-b]pyridin-2(3H)-one]
Cc1ccn2ncc(-c3ncc4[nH]c(=O)n([C@H]5CCCN(S(C)(=O)=O)C5)c4n3)c2c1 [Example 9g, (S)-2-(5-methylpyrazolo[1,5-a]pyridin-3-yl)-9-(1-(methylsulfonyl)piperidin-3-yl)-7H-purin-8(9H)-one]
N#Cc1ccn2ncc(-c3ncc4[nH]c(=O)n([C@H]5CCCN(C(=O)CO)C5)c4n3)c2c1 [Example 10a]
CC(C)(O)C(=O)N1CCC[C@H](n2c(=O)[nH]c3cnc(-c4cnn5ccc(C#N)cc45)nc32)C1 [Example 10b]
CCC(CC)C(=O)N1CCC[C@H](n2c(=O)[nH]c3cnc(-c4cnn5ccc(C#N)cc45)nc32)C1 [Example 10e]
N#Cc1ccn2ncc(-c3ncc4[nH]c(=O)n([C@H]5CCCN(C(=O)CC(F)(F)F)C5)c4n3)c2c1 [Example 10h]
CCC(=O)N1CCC[C@H](n2c(=O)[nH]c3cnc(-c4cnn5ccc(C)cc45)nc32)C1 [Example 10i]
COCC(=O)N1CCC[C@H](n2c(=O)n(C(=O)COC)c3cnc(-c4cnn5ccc(C)cc45)nc32)C1 [Example 10k]
CC(=O)N1CCC[C@H](n2c(=O)[nH]c3cnc(-c4cnn5ccc(C)cc45)nc32)C1 [Example 10l]
Cc1ccn2ncc(-c3ncc4[nH]c(=O)n([C@H]5CCCN(C(=O)CO)C5)c4n3)c2c1 [Example 10m]
N#Cc1ccn2ncc(-c3ncc4[nH]c(=O)n([C@H]5CCCN(C(=O)C6CC6)C5)c4n3)c2c1 [Example 10n]
CCNC(=O)[C@@H](C)n1c(=O)[nH]c2cnc(-c3cnn4ccc(C#N)cc34)nc21 [Example 15f]
C[C@H](C(=O)N(C)C)n1c(=O)[nH]c2cnc(-c3cnn4ccc(C#N)cc34)nc21 [Example 15h]
C[C@@H](C(=O)NCC(F)(F)F)n1c(=O)[nH]c2cnc(-c3cnn4ccc(C#N)cc34)nc21 [Example 15i]
